Experimental data published in paper PMC6100250, “Efficient Intracellular Delivery of Cell-Impermeable Cargo Molecules by Peptides Containing Tryptophan and Histidine” (Molecules : A Journal of Synthetic Chemistry and Natural …, 2018).
Non-standard residues stand in square brackets, D forms with d. Residues, ends and D or L forms follow the SMILES beside them. *: point of attachment. 5FAM = O=C1OC2(c3ccc(O)cc3Oc3cc(O)ccc32)c2ccc(C(=O)*)cc21; pY = N[C@@H](Cc1ccc(OP(=O)(O)O)cc1)C(=O)O

Tests used:
[1] = test system: SK-OV-3 cells; assay: Live cell fluorescence microscopy of F’-GpYEEI uptake; type: cell-based, human; settings: F’-GpYEEI 5 µM alone, no carrier peptide, 3 h, FITC channel
Description: Fluorescence microscopy was used to confirm the intracellular uptake of F’-GpYEEI in the presence of cyclic [WH]5. The fluorescence intensity of F’-GpYEEI (5 µM) was visualized in a physical mixture with cyclic [WH]5 (50 µM) compared to that of F’-GpYEEI alone in SK-OV-3 cells. […] F’-GpYEEI alone was used as a control in this assay. Live cell imaging was carried using glass-bottom plates.
SK-OV-3 cells were grown with antibiotic-free DMEM 24 h prior to the experiment in a glass bottom petri-dish (60 mm × 15 mm) of 5000 cells per mL of media. The F’-GpYEEI was incubated with cyclic [WH]5 for 30 min at room temperature. Then, the cells were treated with a mixture of F’-GpYEEI (5 μM) and cyclic [WH]5 (50 μM) in Opti-MEM for 3 h at 37 °C. After 3 h, the medium containing the treatments was removed, and PBS was added to cells. The cells were washed with PBS for two times. Images were acquired with BZ-X710 fluorescence microscope (Keyence, Osaka, Japan) at 100× magnification for brightfield and FITC channels. Images were merged and processed using Image J software to visualize the fluorescence uptake by cells.

[2] = test system: CCRF-CEM cells; assay: MTS cell viability (cytotoxicity) assay; settings: peptide 10, 50 and 100 µM (up to 100 µM), 3 h incubation, 37 °C, read at 490 nm, triplicate
Description: (§1) To determine concentration of peptide to be used in in vitro assays, the cytotoxicity of peptides was evaluated in two cell lines, human ovarian (SK-OV-3) and leukemia (CCRF-CEM) cancer cells.
(§2) Human leukemia CCRF-CEM (ATCC # CCL-119) and ovarian carcinoma SK-OV-3 (ATCC # HTB-77) cell lines were purchased from the American Type Culture Collection. Cells were grown on 75 cm^2 cell culture flasks. The Roswell Park Memorial Institute (RPMI)-1640 medium was used for leukemia cells and McCoy’s 5A medium was used for SK-OV-3 cells. The medium was supplemented with 10% fetal bovine serum (FBS), 1% penicillin−streptomycin solution (10,000 units of penicillin, and 10 mg of streptomycin in 0.9% NaCl) in a humidified atmosphere of 5% CO2 at 37 °C. All bioassays were performed in triplicate.
(§3) The cytotoxicity assay was performed via an MTS proliferation assay in CCRF-CEM and SK-OV-3 cells. CCRF-CEM (40,000 cells) and SK-OV-3 (5000 cells) were incubated with 100 µL of complete media. The cells were seeded overnight in 96 well plates. […] The fluorescence intensity of the formazan product was measured at 490 nm using a Spectra Max M2 microplate spectrophotometer. The percentage of cell survival was calculated as [(OD value of cells treated with the test mixture of compounds) − (OD value of culture medium)]/[(OD value of control cells) − (OD value of culture medium)] × 100%.

[3] = test system: SK-OV-3 cells; assay: MTS cell viability (cytotoxicity) assay; settings: peptide 10, 50 and 100 µM (up to 100 µM), 3 h incubation, 37 °C, read at 490 nm, triplicate
Description: as §1, §2, §3

Compound	cellular uptake of F’-GpYEEI alone (fluorescence microscopy) [1]	cytotoxicity (cell survival, MTS) [2]	cytotoxicity (cell survival, MTS) [3]
CC[C@H](C)[C@H](NC(=O)[C@H](CCC(=O)O)NC(=O)[C@H](CCC(=O)O)NC(=O)[C@H](Cc1ccc(OP(=O)(O)O)cc1)NC(=O)CNC(=O)c1ccc2c(c1)C(=O)OC21c2ccc(O)cc2Oc2cc(O)ccc21)C(=O)O [F’-GpYEEI] (5FAM-G[pY]EEI-OH)	No green fluorescence was observed		
O=C1N[C@@H](Cc2c[nH]c3ccccc23)C(=O)N[C@@H](Cc2c[nH]cn2)C(=O)N[C@@H](Cc2c[nH]c3ccccc23)C(=O)N[C@@H](Cc2c[nH]cn2)C(=O)N[C@@H](Cc2c[nH]c3ccccc23)C(=O)N[C@@H](Cc2c[nH]cn2)C(=O)N[C@@H](Cc2c[nH]c3ccccc23)C(=O)N[C@@H](Cc2c[nH]cn2)C(=O)N[C@@H](Cc2c[nH]c3ccccc23)C(=O)N[C@H]1Cc1c[nH]cn1 [cyclic [WH]5] (cyclo(HWHWHWHWHW))		did not show significant toxicity	did not show significant toxicity
